Consider three compounds from ChEMBL document CHEMBL1201862, “PubChem BioAssay data set” (2004).

SMILES strings stand for the structures. Calls of active or inactive are those of the source.

For assay [1], the target named is T1, Insulin-degrading enzyme (Homo sapiens, UniProt P14735).
T1 sequence (P14735 whole entry): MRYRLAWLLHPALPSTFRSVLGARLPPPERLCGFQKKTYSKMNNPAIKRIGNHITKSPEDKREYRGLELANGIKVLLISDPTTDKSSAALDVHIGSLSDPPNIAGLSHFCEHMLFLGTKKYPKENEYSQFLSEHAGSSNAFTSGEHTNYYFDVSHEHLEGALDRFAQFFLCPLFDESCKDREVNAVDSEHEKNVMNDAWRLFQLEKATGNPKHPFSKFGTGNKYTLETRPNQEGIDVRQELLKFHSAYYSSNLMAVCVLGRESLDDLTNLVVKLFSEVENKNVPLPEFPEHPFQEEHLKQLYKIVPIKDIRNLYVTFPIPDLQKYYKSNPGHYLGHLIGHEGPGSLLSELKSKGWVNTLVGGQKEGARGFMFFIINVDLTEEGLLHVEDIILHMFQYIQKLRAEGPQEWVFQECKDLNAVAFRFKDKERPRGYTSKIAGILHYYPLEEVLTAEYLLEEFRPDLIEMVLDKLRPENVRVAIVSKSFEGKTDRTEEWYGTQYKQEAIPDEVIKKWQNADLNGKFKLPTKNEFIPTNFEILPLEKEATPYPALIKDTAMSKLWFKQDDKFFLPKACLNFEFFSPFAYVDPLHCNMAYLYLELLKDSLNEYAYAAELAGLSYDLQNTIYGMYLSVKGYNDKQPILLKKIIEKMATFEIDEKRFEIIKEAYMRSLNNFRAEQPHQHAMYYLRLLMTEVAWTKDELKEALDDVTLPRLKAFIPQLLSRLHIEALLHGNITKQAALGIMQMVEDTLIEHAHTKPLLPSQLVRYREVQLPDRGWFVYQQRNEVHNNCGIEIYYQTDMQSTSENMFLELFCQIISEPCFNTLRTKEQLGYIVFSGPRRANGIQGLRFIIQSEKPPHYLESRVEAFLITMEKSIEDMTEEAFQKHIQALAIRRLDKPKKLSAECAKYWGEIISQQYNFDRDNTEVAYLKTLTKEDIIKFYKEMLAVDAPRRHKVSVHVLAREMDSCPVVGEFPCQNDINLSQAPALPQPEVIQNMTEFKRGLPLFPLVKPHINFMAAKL
The experiment in a line: recombinant IDE activation, cell-free – biochemical, fluorescence polarization, counter-screen for IDE activator project, dose response (AID 588681). For orientation: Fluorescence polarisation rises when a labelled molecule tumbles more slowly, as on binding a larger partner.

For assay [2], the system named is HEK293. The experiment in a line: optical interference in Abeta FP readout, dose response, artefact control for IDE activator project, biochemical, fluorescence polarization (AID 588442). The note with it: Homo sapiens. It counts as functional, cell-based.
For assay [3], the target named is T1, Insulin-degrading enzyme. As to the kind of experiment: cellular IDE activation of Abeta substrate cleavage – fluorescence polarization, HEK cells, dose response (AID 588439). Format: functional, cell-based.
The test system of assay [4] is HEK293. As to the kind of experiment: membrane integrity loss in HEK cells – cell-based, fluorescence, cytotoxicity control for IDE activator project, dose response (AID 588440).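 Further: cytotoxicity by LDH release measuring loss of membrane integrity.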 Format: functional. Particulars: Homo sapiens.
Assay [5] in a line: viability loss in HepG2 hepatoma cells – cell-based, ATP luminescence, cherry-pick, activator set 2, cytotoxicity control, dose response (AID 1053143). Format: functional.
In assay [6] the target is Neurotensin receptor type 1 (Homo sapiens, UniProt P30989). It counts as functional.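 Further: Image-based confirmatory dose-response assay measuring agonist activity at NTR1; NTR1-expressing U2OS osteosarcoma cells imaged for beta-arrestin GFP spot formation; agonist potency where compounds increase beta-arrestin recruitment.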
Chain of Neurotensin receptor type 1 (P30989 whole entry): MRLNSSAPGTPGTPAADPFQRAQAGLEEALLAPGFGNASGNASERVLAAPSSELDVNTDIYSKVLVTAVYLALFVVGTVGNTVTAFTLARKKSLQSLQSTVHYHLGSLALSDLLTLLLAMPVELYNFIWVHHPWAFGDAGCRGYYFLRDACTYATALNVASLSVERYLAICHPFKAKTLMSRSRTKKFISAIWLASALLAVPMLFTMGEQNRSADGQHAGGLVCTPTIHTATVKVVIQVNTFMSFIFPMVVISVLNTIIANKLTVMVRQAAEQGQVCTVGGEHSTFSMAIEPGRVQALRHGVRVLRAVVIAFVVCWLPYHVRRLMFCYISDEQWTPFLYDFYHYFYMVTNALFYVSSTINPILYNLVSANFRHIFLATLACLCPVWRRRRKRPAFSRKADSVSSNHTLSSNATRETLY
The nature of assay [7]: Mcl1-dependent cancer cell viability – HMC-1-8 cells, luminescence, dry powder, selectivity assay for A1 inhibitor project, dose response (AID 504415). It counts as functional, cell-based. Particulars: Homo sapiens.
Assay [8] is described as follows: Luminescence Cell-Based Dose Retest to Confirm Inhibitors of Cancer Stem Cells. [Related pubchem assays (depositor defined):AID2717, AID2721]. It counts as functional. Particulars: Homo sapiens.
Assay [9] relates to BJ. The experiment in a line: cells. Particulars: Homo sapiens. It counts as functional, cell-based.
The nature of assay [10]: loss of viability in HepG2 cells – cell-based, CellTiter-Glo, cherry-picked, cytotoxicity control for Shn3 inhibitor project, dose response (AID 624134). It counts as functional. In general terms: In ATP-based viability assays light output follows the ATP content of the culture.
Assay [11] concerns BJ. As to the kind of experiment: growth inhibition of engineered Ras-driven BJ cells – cell-based, alamar blue fluorescence, cherrypicked samples, dose response (AID 2631).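 Further: confirmatory dose-response assay in RAS-dependent BJ fibroblasts engineered with TERT, LT and ST, with cytotoxicity read by fluorescence.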 The note with it: Homo sapiens. Format: functional.
A short description of assay [12]: Shn3 3'UTR reporter signal decrease – cell-based, Clone20 osteoblasts, firefly luciferase, cherry-pick, set 2, Schnurri-3 inhibitor project, dose response (AID 720490).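 Further: actives lower the luminescence signal as inhibitors.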 It counts as functional.
Assay [13] is described as follows: Luminescence Cell-Based Dose Response HTS to Identify Activators of Luciferase Translation or Activity in H4 […] Cells. [Related pubchem assays: 1829 (Project Summary), 1814 (Primary HTS)]. Format: functional.
Assay [14] is described as follows: non-specific 3'UTR reporter inhibition in Clone20-Shn3RL – cell-based, Renilla luciferase, cherry-picked, counter-screen for Shn3 inhibitor project, dose response (AID 624133). Format: functional. (A counterscreen serves to expose hits that act by an unwanted route or on another target.)
Assay [15] concerns the target T2, Beta Lactamase (Pseudomonas aeruginosa, UniProt Q932Y6). The experiment in a line: BLA reporter interference, concentration series – BLA reporter cells, FRET fluorescence, artefact control for NOD2-RIPK2 interaction inhibitor project, dose response (AID 651552). Format: functional, cell-based.
Assay [16] is described as follows: Fluorescence-based cell-based high throughput dose response assay for inhibitors of the interaction of nucleotide-binding oligomerization domain containing 2 (NOD2) and the receptor-interacting serine-threonine kinase 2 (RIPK2). The note with it: Homo sapiens. Format: functional.
Assay [17] can be described thus: reduction of Shn3 3'UTR-driven luciferase in osteoblasts – cell-based, Clone20 osteoblasts, firefly luciferase, cherry-picked, dose response (AID 624132).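 Further: firefly luciferase luminescence from reporter carrying the Shn3 3'UTR in osteoblasts.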 Format: functional.
Assay [18] relates to BJ. As to the kind of experiment: BJ-TERT-LT-ST fibroblast viability loss – cell-based, RAS-independent, luminescence, dose response (AID 1935).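 Further: BJ fibroblasts immortalized with TERT plus LT and ST oncogenes.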 It counts as functional. Particulars: Homo sapiens.
Assay [19] has as its target T2, Beta Lactamase. The experiment in a line: BLA reporter interference, concentration series – BLA reporter cells, FRET fluorescence, artefact control for TLR9-MyD88 binding inhibitor project, dose response (AID 588341).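 Further: cell based assay in CHO-K1 cells stably expressing beta-lactamase.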 Format: cell-based.
The test system of assay [20] is BJ. The experiment in a line: BJ-TERT fibroblast viability loss – cell-based, RAS-independent, luminescence, dose response (AID 1933). Format: functional. The note with it: Homo sapiens.
The test system of another assay is H4. The experiment in a line: Luminescence Cell-Based Dose Response HTS to Identify Activators of 5'UTR Stem-Loop Driven Prion Protein mRNA Translation in H4 Neuroglioblastoma Cells. [Related pubchem assays: 1829 (Project Summary), 1814 (Primary HTS)]. It counts as functional. The note with it: Homo sapiens.
In a further assay the target is T3, Protein RecA (Mycobacterium tuberculosis, UniProt P9WHJ3).
T3 sequence (P9WHJ3 whole entry): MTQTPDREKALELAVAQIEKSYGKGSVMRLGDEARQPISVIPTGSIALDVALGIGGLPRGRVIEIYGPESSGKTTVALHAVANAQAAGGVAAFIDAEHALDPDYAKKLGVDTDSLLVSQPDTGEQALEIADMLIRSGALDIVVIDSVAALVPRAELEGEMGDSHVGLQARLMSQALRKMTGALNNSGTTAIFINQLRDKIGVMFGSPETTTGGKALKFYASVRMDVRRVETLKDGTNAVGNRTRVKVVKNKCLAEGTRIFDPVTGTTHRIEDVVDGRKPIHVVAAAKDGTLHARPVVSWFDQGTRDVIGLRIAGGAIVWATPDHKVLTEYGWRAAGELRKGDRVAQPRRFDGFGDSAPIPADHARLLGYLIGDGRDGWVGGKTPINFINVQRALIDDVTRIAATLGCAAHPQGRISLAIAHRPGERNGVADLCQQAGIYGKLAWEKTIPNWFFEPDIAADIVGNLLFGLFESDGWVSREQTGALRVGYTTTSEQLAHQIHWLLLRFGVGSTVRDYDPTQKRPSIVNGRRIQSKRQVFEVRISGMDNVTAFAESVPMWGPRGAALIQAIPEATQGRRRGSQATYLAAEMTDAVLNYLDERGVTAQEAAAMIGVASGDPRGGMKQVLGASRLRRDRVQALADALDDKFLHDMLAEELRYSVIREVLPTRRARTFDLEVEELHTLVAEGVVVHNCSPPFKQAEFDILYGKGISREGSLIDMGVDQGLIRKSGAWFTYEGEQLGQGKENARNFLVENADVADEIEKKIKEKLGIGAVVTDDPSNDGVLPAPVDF
As to the kind of experiment: Fluorescence Cell-Free Homogeneous Dose Retest to Identify Inhibitors of RecA-Intein Splicing Activity. [Related pubchem assays (depositor defined):AID2097, AID2223, AID489010, AID492950]. Format: functional.

Assay [21] in a line: DRD fibroblast viability loss – cell-based, non-viral oncogenic, luminescence, dose response (AID 1934). It counts as functional. The note with it: Homo sapiens.
The next assay has as its system CHO. As to the kind of experiment: CHO cell viability loss, potency – luminescence, cytotoxicity control for TLR9-MyD88 binding inhibitor project, dose response (AID 588339).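 Further: CHO cells stably coexpressing TLR9 and MyD88 fusions from primary screen; compound exposure lasted 48 hours before viability readout.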 Format: functional, cell-based, hamster. Particulars: Cricetulus griseus.
A short description of assay [22]: HEK-293T viability loss after treatment – luminescence, T-cell screen hits, cytotoxicity control for TCR NF-kB inhibitor project, dose response (AID 489026).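 Further: cells exposed to compound about 14 hours before the viability readout.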 Format: functional, cell-based.
A short description of assay [23]: Shn3 transcript knock-down in Clone20 cells – cell-based, qPCR, cherry-pick, dose response (AID 743415). It counts as functional.
Assay [24] deals with T4, Replicative DNA helicase DnaB (Mycobacterium tuberculosis, UniProt P9WMR3).
T4 sequence (P9WMR3 whole entry): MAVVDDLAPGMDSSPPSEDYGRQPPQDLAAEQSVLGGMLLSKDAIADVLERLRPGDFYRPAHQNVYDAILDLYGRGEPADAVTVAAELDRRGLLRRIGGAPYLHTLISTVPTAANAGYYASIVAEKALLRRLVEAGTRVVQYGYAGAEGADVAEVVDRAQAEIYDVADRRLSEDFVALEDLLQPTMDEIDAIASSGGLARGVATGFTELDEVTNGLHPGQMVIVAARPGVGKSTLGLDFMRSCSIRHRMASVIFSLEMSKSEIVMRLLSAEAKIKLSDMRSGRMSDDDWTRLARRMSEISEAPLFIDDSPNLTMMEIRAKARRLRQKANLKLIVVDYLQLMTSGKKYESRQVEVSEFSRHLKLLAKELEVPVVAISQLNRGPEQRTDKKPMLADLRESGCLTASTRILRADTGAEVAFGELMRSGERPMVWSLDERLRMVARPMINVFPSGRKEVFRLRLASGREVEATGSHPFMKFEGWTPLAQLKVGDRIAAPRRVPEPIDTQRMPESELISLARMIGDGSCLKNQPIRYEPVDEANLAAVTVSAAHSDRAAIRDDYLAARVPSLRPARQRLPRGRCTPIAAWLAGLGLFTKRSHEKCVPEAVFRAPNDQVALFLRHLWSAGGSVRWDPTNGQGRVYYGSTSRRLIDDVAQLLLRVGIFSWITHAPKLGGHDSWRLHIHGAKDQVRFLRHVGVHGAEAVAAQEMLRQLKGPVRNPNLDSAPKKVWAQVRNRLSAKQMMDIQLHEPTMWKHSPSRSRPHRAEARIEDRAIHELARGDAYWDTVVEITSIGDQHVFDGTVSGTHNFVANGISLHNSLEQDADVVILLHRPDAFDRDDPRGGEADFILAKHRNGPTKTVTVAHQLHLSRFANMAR
The experiment in a line: DnaB intein splicing inhibitors, dose response, biochemical, cell-free fluorescence (AID 449749). It counts as functional.

Assay [25] is described as follows: Luminescence Cell-Based Dose Confirmation HTS to Identify Activators of 5'UTR Stem-Loop Driven Alpha-Synuclein mRNA Translation in H4 Neuroglioblastoma Cells. [Related pubchem assays: 1829 (Project Summary), 1814 (Primary HTS)]. It counts as functional.
Assay [26] is described as follows: EF1alpha-driven Renilla reporter with control 3'UTR suppression – Clone20-Shn3RL cells, dual-Glo, cherry-pick, set 2, counter-screen for Shn3 3'UTR targeting project, dose response (AID 720724). Particulars: Dual-Go Shn3RL. It counts as functional, cell-based.

T2 sequence (Q932Y6 whole entry, the tested form may be a part): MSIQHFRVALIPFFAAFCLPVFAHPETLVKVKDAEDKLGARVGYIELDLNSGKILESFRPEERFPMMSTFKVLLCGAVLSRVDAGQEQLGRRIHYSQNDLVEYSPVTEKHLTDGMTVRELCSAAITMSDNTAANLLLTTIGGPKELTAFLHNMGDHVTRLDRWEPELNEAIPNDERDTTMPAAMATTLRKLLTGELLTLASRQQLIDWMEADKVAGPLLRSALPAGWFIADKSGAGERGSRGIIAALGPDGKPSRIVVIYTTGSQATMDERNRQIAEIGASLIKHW

As for `CCN(CC(=O)Nc1ccc(NC(C)=O)cc1)C(=O)c1cc(CN2C(=O)c3ccccc3C2=O)ccc1OC`, the EC50 at Insulin-degrading enzyme [1], with HEK293 [2] and on Insulin-degrading enzyme [3] was > 54.7 µM (inactive) each time. Also, the IC50 – broadly, the concentration at which inhibition is half-maximal – with HEK293 [4] was > 89.2 µM (inactive).

For `Cc1ccc(Sc2c([N+](=O)[O-])c(=O)n(C)c3ccccc23)cc1`, the values for the AC50 in assay [5], in assay [7] and in assay [8] were 26 µM (active), 19.3 µM (active) and 3.18 µM (active), respectively. Also, the EC50 – broadly, the concentration needed to bring the measured effect to its halfway point – in [6] is 26 µM (inactive).

On to `CCOC(=O)C1CCN(S(=O)(=O)c2c(Cl)ccc3nonc23)CC1`, for which the EC50 in the assay with BJ [9] is 6.08 µM (inconclusive); in the assay on BJ [11], 0.318 µM (active); in assay [13] it was > 120 µM (not active); with BJ [18], 2.84 µM (inconclusive); with BJ [20], 2.73 µM (inconclusive); in the assay with H4 it was > 120 µM (not active). Also, the EC50 is 14.4 µM (active) on Protein RecA, 2.75 µM (active) in [21] and > 120 µM (not active) in assay [25]. Also, the AC50 – broadly, the concentration at which the activity in the assay is half-maximal – was 12.2 µM (active) in assay [10]; 1.97 µM (active) in [12]; 4.78 µM (active) in [14]; 0.919 µM (active) in assay [17]; 3.36 µM (active) in [23]; 5.07 µM (active) in [24]. Further, the AC50 in [26] is 1.77 µM (active). In addition, the IC50 was 26.8 µM (inactive) at Beta Lactamase [15]; 1.12 µM (active) in assay [16]; 21.2 µM (inactive) on Beta Lactamase [19]; 2.42 µM (active) in the assay with CHO; > 80 µM (inactive) in [22].
